# In US20030211076A1, “Compositions and methods for treatment of proliferative disorders” (priority 2003, published 2003):
# “Also recorded” adds a separate entry of the source.
# Key:
# [1] = test system: porcine pulmonary arterial VEC; assay: Growth of VEGF165-stimulated VEC (cell counting); type: cell-based
# Method: The effects of LO oxidized VEGF165 on cell proliferation was also assessed. VEGF165 is a potent mitogen for vascular endothelial cells (VEC). Porcine pulmonary arterial VEC (2×10^4) were plated and incubated overnight in 35 mm-dishes containing 2 ml 15% FBS/M199 medium, and then refed with 5% FBS/M199 with different treatment regimens as shown in A, B and C of FIG. 18. FIG. 18A represents a dose response of VEGF165-stimulated cell growth. Media were supplemented with VEGF165 at the indicated doses and cells were incubated for additional 3 days. Cultures were refed once during the incubation period with fresh media supplemented with VEGF165 at indicated doses. Cells were harvested by trypsinization and counted with a hemacytometer. FIG. 18B represents the LO inhibition of VEGF165-stimulated cell growth. FIG. 18C represents the effects of inactivation of LO by BAPN on VEGF165-stimulated cell growth. […] Data represent the means (±sd) of three separate experiments each assessed with triplicate dishes.
# [2] = test system: porcine pulmonary arterial vascular endothelial cells (VEC); assay: Growth of Tat-stimulated vascular endothelial cells (cell counting, phase-contrast microscopy); type: cell-based
# Method: Stimulation of cell proliferation of porcine pulmonary arterial vascular endothelial cells (VEC) was tested with LO-oxidized Tat. VEC (2×10^4) were plated and incubated overnight in 35 mm-dishes containing 2 ml 15% FBS/M199 medium, and then refed with 5% FBS/M199 with different treatment regimens as shown in A, B and C of FIG. 13. FIG. 13A represents a dose response of Tat-stimulated cell growth. Media were supplemented with Tat at the indicated doses and cells were incubated for additional 3 days. Cultures were refed once during the incubation period with fresh media supplemented with Tat at indicated doses. Cells were harvested by trypsinization and counted with a hemacytometer. FIG. 13B represents the LO inhibition of Tat-stimulated cell growth. FIG. 13C represents the effects of inactivation of LO by BAPN on Tat-stimulated cell growth. LO: 3 or 10 nM, Tat: 10 ng ml^−1, BAPN: 100 μM. Data represent the means (±sd) of three separate experiments each assessed with triplicate dishes.
# Numerical and morphological alterations in Tat-stimulated VEC cells treated with LO were observed under phase-contrast microscopy (25'). Cells were cultured as described in FIG. 13 and treated with additives as indicated below. The following represents FIG. 14 phase contrast microscopy: A, control; B, 10 ng ml^−1Tat; C, 10 ng ml^−1 Tat+3 nM LO; D, 10 ng ml^−1 Tat+3 nM LO that was preincubated with 100 μM BAPN for 15 min at 370; E, 100 μM BAPN, alone, and F, 3 nM LO, alone.
# [3] = test system: intracellular FGF2 in NIH 3T3 6-1 cells; assay: Intracellular FGF2 crosslinking by LO, Western blotting with monoclonal anti-FGF2; type: cell-based, mouse
# Method: The possibility that exposure of cells to LO alters the physical state of intracellular FGF2 was assessed by Western blotting with monoclonal anti-FGF2 of cell lysates. Subconfluent NIH 3T3 and NIH 3T3 6-1 cells were incubated for 20 h in 0.3% FBS/DMEM with or without additives as indicated below. Cells were suspended by trypsin treatment and lysed. Aliquots of lysates containing 50 μg of cell protein were analyzed by Western blotting of SDS-PAGE electrophoretograms probing with monoclonal anti-FGF2 (FIGS. 11A and 11B). Total protein was visualized by Coomassie blue staining of SDS-PAGE electrophoretograms (FIG. 11C). FIG. 11A represents FGF2 expression in NIH 3T3 (lane 1) and NIH 3T3 6-1 cells (lane 2). FIG. 11B represents forms of intracellular FGF2 in NIH 3T3 6-1 cells incubated in the absence (lane 1) or presence of 25 nM LO (lane 2) or presence of 25 nM LO which had been preincubated with 100 μM BAPN for 15 min at 37° C. (lane 3). FIG. 11C represents the total protein profiles in control and LO-treated cells with treatments in each lane corresponding to those in FIG. 11B.
# [4] = test system: transformed NIH 3T3 6-1 cells overexpressing FGF2; assay: LO inhibition of tumor cell growth (cell counting, phase-contrast and fluorescent microscopy); type: cell-based, mouse
# Method: Transformed NIH 3T3 6-1 cells (2×10^4) overexpressing FGF2 were plated and incubated overnight in 35 mm-dishes containing 2 ml 10% fetal bovine serum (FBS)/Dulbecco's Modified Eagle's (DME) medium, and then refed with 0.3% FBS/DMEM with different treatment regimens as shown in FIGS. 9A and 9B. FIG. 9A represents a dose response. Cells were treated with LO at various doses for a total of 6 days. Cultures were refed with fresh media supplemented with LO, as indicated, every two days. After treatment, cells were harvested by trypsinization and counted with a hemacytometer. FIG. 9B represents the effects of inactivation of LO by BAPN on tumor cell growth. LO was present at 25 nM and BAPN at 200 μM as indicated. Data represent the means (±sd) of three separate experiments each assessed with triplicate dishes.
# Numerical and morphological alterations in tumor cells treated with LO were observed under phase-contrast microscopy (25×). FIG. 10 comprises the following: A, control; B, 25 nM LO; C, 25 nM LO+200 μM BAPN; D, 200 μM BAPN alone; and E and F, LO uptake by NIH3T3 6-1 cells. In E and F, cells grown on coverslips were exposed to FITC-conjugated LO (0.16 μg/ml) for 2 h, then fixed and examined by fluorescent microscopy (100×).
# [5] = test system: FGF2 nuclear localization in Swiss 3T3 cells; assay: FGF2 nuclear localization, immunochemical staining; type: cell-based
# Method: After endocytosis, a fraction of exogenous FGF2 can enter the nucleus of a variety of cell types in a cell cycle-dependent manner (Mason; Rifkin et al.; Prats et al.; Stachowiak et al., 1996; Arese et al.; Baldin et al.). Thus, the possibility that oxidation of FGF2 by LO affects the nuclear localization of this growth factor was tested by using immunochemistry. In FIGS. […]
Compound,VEGF165-dependent cell growth ([1]; VEGF165 15 ng/ml),"Tat-dependent cell proliferation ([2]; LO at 3 nM, Tat 10 ng/ml)","cell numbers ([2]; LO at doses ≧10 nM, Tat 10 ng/ml)","forms of intracellular FGF2 ([3]; 25 nM LO, 20 h)","decrease of cell number compared to the control (maximal inhibition) ([4]; 25 nM LO, 6 days, 0.3% FBS/DMEM)","numerical and morphological alterations in tumor cells ([4]; 25 nM LO, phase-contrast microscopy)",levels of nuclear FGF2 ([5]; LO in the absence of exogenous FGF2 or BAPN),intranuclear FGF2 ([5]; simultaneously incubated with FGF2 and 10 nM LO),effect on LO inhibition of VEGF165-stimulated VEC proliferation ([1]; 100 μM BAPN),cell growth ([2]; 100 μM BAPN alone),"effect on LO inhibition of Tat-stimulated cell growth ([2]; 100 μM BAPN, LO 3 or 10 nM, Tat 10 ng/ml)",effect on LO-induced FGF2 oligomer formation ([3]; 25 nM LO preincubated with 100 μM BAPN for 15 min at 37° C.),"proliferation relative to the control ([4]; 200 μM BAPN added with 25 nM LO, 6 days)","tumor cell growth relative to the control ([4]; 200 μM BAPN in the absence of added LO, 6 days)",effect on LO inhibition of nuclear translocation of FGF2 ([5]; 100 μM BAPN with LO and FGF2),FGF2 transport to the nucleolus ([5]; BAPN in the absence of added LO)
lysyl oxidase [LO],inhibited VEGF165-dependent cell growth with increased doses,effectively suppressed the Tat-dependent cell proliferation to the control level; also recorded: the growth stimulating ability of Tat was inhibited,severe loss in cell numbers below the control,induced the formation of crosslinked dimers and oligomers of FGF2 within the cells,95%,induced cell death,reduced levels of nuclear FGF2,did not exhibit enhanced levels of intranuclear FGF2,,,,,,,,
"N#CCCN [BAPN, β-Aminopropionitrile, reference compound]",,,,,,,,,effectively blocked,had no effect on the cell growth,totally inhibited; also recorded: cells sustained growth to confluence,prevented,3 fold,2.5 fold,prevented,increased FGF2 transport to the nucleolus
